Test system: CN0375-F725-PDC KRAS spheroid viability
Test: Anticancer human tumor CN0375-F725-PDC patient-derived colon carcinoma cell line growth inhibition [KRAS2]
Details: spheroids with HUVEC and MSC; for IC50: curve of first compound; for viability, T/C: stronger effect = lower value
In short: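 Combination screen of spheroid viability in tumor-cell co-cultures with endothelial (HUVEC) and mesenchymal stem cell stroma. Each agent was tested in half-log dilutions, topping at clinical Cmax or at 10 microM without a known Cmax.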

[1] = second compound 0.1 µM, first compound 0.000316 µM
[2] = second compound 0.1 µM, first compound 0.001 µM
[3] = second compound 0.1 µM, first compound 0.00316 µM
[4] = second compound 0.1 µM, first compound 0.01 µM
[5] = second compound 0.1 µM, first compound 0.0316 µM
[6] = second compound 0.1 µM, first compound 0.1 µM
[7] = second compound 0.316 µM, first compound 0.000316 µM
[8] = second compound 0.316 µM, first compound 0.001 µM
[9] = second compound 0.316 µM, first compound 0.00316 µM
[10] = second compound 0.316 µM, first compound 0.01 µM
[11] = second compound 0.316 µM, first compound 0.0316 µM
[12] = second compound 0.316 µM, first compound 0.1 µM
[13] = second compound 1 µM, first compound 0.000316 µM
[14] = second compound 1 µM, first compound 0.001 µM
[15] = second compound 1 µM, first compound 0.00316 µM
[16] = second compound 1 µM, first compound 0.01 µM
[17] = second compound 1 µM, first compound 0.0316 µM
[18] = second compound 1 µM, first compound 0.1 µM
[19] = second compound 3.16 µM, first compound 0.000316 µM
[20] = second compound 3.16 µM, first compound 0.001 µM
[21] = second compound 3.16 µM, first compound 0.00316 µM
[22] = second compound 3.16 µM, first compound 0.01 µM
[23] = second compound 3.16 µM, first compound 0.0316 µM
[24] = second compound 3.16 µM, first compound 0.1 µM
[25] = second compound 10 µM, first compound 0.000316 µM
[26] = second compound 10 µM, first compound 0.001 µM
[27] = second compound 10 µM, first compound 0.00316 µM
[28] = second compound 10 µM, first compound 0.01 µM
[29] = second compound 10 µM, first compound 0.0316 µM
[30] = second compound 10 µM, first compound 0.1 µM
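Note: spheroids exposed to agents for 7 days.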

| Compound | IC50 (second compound 0.1 µM) [nM] | IC50 (second compound 0.316 µM) [nM] | IC50 (second compound 1 µM) [nM] | IC50 (second compound 3.16 µM) [nM] | IC50 (second compound 10 µM) [nM] | viability, T/C [1] [%] | viability, T/C [2] [%] | viability, T/C [3] [%] | viability, T/C [4] [%] | viability, T/C [5] [%] | viability, T/C [6] [%] | viability, T/C [7] [%] | viability, T/C [11] [%] | viability, T/C [12] [%] | viability, T/C [17] [%] | viability, T/C [18] [%] | viability, T/C [23] [%] | viability, T/C [24] [%] | viability, T/C [29] [%] | viability, T/C [30] [%] | other results |
| --- | --- | --- | --- | --- | --- | --- | --- | --- | --- | --- | --- | --- | --- | --- | --- | --- | --- | --- | --- | --- | --- |
| CN(C)C/C=C/C(=O)Nc1cc2c(Nc3ccc(F)c(Cl)c3)ncnc2cc1O[C@H]1CCOC1 + CC1OCC2(CCN(c3cnc(Sc4ccnc(N)c4Cl)c(N)n3)CC2)C1N | > 100 | > 100 | > 100 | > 100 | > 100 | 95.9 | 87 | 87.5 | 85.9 | 80.4 | 80.4 | 93.6 | 83.2 | 75.7 | 83.5 | 77.7 | 71.6 | 72.3 | 80.6 | 82.8 | viability, T/C [8]: 87.7%; viability, T/C [9]: 84%; viability, T/C [10]: 86.9%; viability, T/C [13]: 94.8%; viability, T/C [14]: 97.5%; viability, T/C [15]: 88.3%; viability, T/C [16]: 85.5%; viability, T/C [19]: 73.9%; viability, T/C [20]: 77.7%; viability, T/C [21]: 73.7%; viability, T/C [22]: 71%; viability, T/C [25]: 90.3%; viability, T/C [26]: 96%; viability, T/C [27]: 88%; viability, T/C [28]: 84.6% |
| COc1cc2nccc(Oc3ccc(NC(=O)C4(C(=O)Nc5ccc(F)cc5)CC4)cc3)c2cc1OC + COc1cc2nc(C)nc(NC(C)c3cc(N)cc(C(F)(F)F)c3)c2cc1OC1CCOC1 | > 10000 | 6740 | 3800 | 1040 | < 31.6 |  |  |  |  | 102 | 99.5 |  | 100 | 96.6 | 88.4 | 91.6 | 76.2 | 81.6 | 15.8 | 4.08 | viability, T/C (second compound 0.1 µM, first compound 0.316 µM): 89.8%; viability, T/C (second compound 0.1 µM, first compound 1 µM): 79.3%; viability, T/C (second compound 0.1 µM, first compound 3.16 µM): 56.6%; viability, T/C (second compound 0.1 µM, first compound 10 µM): 59.6%; viability, T/C (second compound 0.316 µM, first compound 0.316 µM): 90.2%; viability, T/C (second compound 0.316 µM, first compound 1 µM): 74.8%; viability, T/C (second compound 0.316 µM, first compound 3.16 µM): 52.6%; viability, T/C (second compound 0.316 µM, first compound 10 µM): 48.7%; viability, T/C (second compound 1 µM, first compound 0.316 µM): 83.8%; viability, T/C (second compound 1 µM, first compound 1 µM): 75%; viability, T/C (second compound 1 µM, first compound 3.16 µM): 50.3%; viability, T/C (second compound 1 µM, first compound 10 µM): 44.2%; viability, T/C (second compound 3.16 µM, first compound 0.316 µM): 70.4%; viability, T/C (second compound 3.16 µM, first compound 1 µM): 52.4%; viability, T/C (second compound 3.16 µM, first compound 3.16 µM): 16.7%; viability, T/C (second compound 3.16 µM, first compound 10 µM): 9.46%; viability, T/C (second compound 10 µM, first compound 0.316 µM): 7.08%; viability, T/C (second compound 10 µM, first compound 1 µM): 16.8%; viability, T/C (second compound 10 µM, first compound 3.16 µM): 0.92%; viability, T/C (second compound 10 µM, first compound 10 µM): 0.22% |
| CC(C)n1nc(-c2ccc3oc(N)nc3c2)c2c(N)ncnc21 + CNCc1ccccc1-c1csc(C(C)Nc2nc(C)nc3cc(OC)c(OC)cc23)c1 | 58 | 54 | 1.13 | < 0.316 | < 0.316 | 99.7 | 93.1 | 80 | 67 | 55.3 | 45.4 | 91.1 | 55.9 | 43.2 | 37.9 | 29 | 0.52 | 0.44 | 0.18 | 0.21 | viability, T/C [8]: 83.9%; viability, T/C [9]: 78.5%; viability, T/C [10]: 67%; viability, T/C [13]: 66.2%; viability, T/C [14]: 49.4%; viability, T/C [15]: 37.8%; viability, T/C [16]: 47.7%; viability, T/C [19]: 0.35%; viability, T/C [20]: 0.36%; viability, T/C [21]: 0.33%; viability, T/C [22]: 0.28%; viability, T/C [25]: 0.13%; viability, T/C [26]: 0.17%; viability, T/C [27]: 0.14%; viability, T/C [28]: 0.15% |
| Cn1ncnc1[C@H]1c2n[nH]c(=O)c3cc(F)cc(c23)N[C@@H]1c1ccc(F)cc1 + CNCc1ccccc1-c1csc(C(C)Nc2nc(C)nc3cc(OC)c(OC)cc23)c1 | > 100 | > 100 | 0.634 | < 0.316 | < 0.316 | 107 | 106 | 97 | 95.7 | 95.4 | 93.6 | 100 | 91 | 88.2 | 39.4 | 40.6 | 0.25 | 0.42 | 0.13 | 0.23 | viability, T/C [8]: 101%; viability, T/C [9]: 94.5%; viability, T/C [10]: 86.9%; viability, T/C [13]: 54.1%; viability, T/C [14]: 46.2%; viability, T/C [15]: 47.8%; viability, T/C [16]: 41.5%; viability, T/C [19]: 0.23%; viability, T/C [20]: 0.33%; viability, T/C [21]: 0.31%; viability, T/C [22]: 0.28%; viability, T/C [25]: 0.14%; viability, T/C [26]: 0.33%; viability, T/C [27]: 0.13%; viability, T/C [28]: 0.15% |

— PubChem BioAssay AID1963860 (Molecular Pharmacology Branch, DTP, NCI, 2024)
